Reference: PMC5059921, “Chalepin: isolated from Ruta angustifolia L. Pers induces mitochondrial mediated apoptosis in lung carcinoma cells” (BMC Complementary and Alternative Medicine, 2016)
Values after ≈ are worked out from the molar mass of the structure shown. Read-outs that look alike come from different tables or passages of the source.

Assays:
washed rabbit platelets = tested on: washed rabbit platelets; design: method as in earlier work; conditions: cited from earlier work; for % inhibition of platelet aggregation, inducer AA: AA 100 /c109/c77; for % inhibition of platelet aggregation, inducer Col: collagen 10 /c109g/mL; for % inhibition of platelet aggregation, inducer PAF: PAF 2ng/mL; for % inhibition of platelet aggregation, inducer Thr: thrombin 0.1 U/mL; for antiplatelet aggregation activity (in words): at 100 /c109g/mL
[1] = tested on: Hela: Human cervix epithelioid carcinoma; design: method as in earlier work; conditions: cited from earlier work
[2] = tested on: DLD (DLD-1): Human colon adenocarcinoma; design: method as in earlier work; conditions: cited from earlier work
Hepa: Human hepatoma = tested on: Hepa: Human hepatoma; design: method as in earlier work; conditions: cited from earlier work
[3] = tested on: hepatitis C virus, hepatoma cell line (Huh7.5); design: method as in PMID 25454460; conditions: cited from earlier work
A549 cell line = test: SRB in vitro cytotoxicity screening; assay type: cell-based, human; conditions: Homo sapiens, A549, isolated compounds
Procedure: (§1) The human cell lines A549 (lung cancer) and Ca Ski (cervical cancer) were cultured as monolayer in RPMI 1640 growth media whereas HCT-116 (colon cancer) and MRC5 (human normal lung fibroblasts) was cultured in McCoy’s 5A and EMEM medium, respectively. All cells were purchased from the […] (ATCC, USA). All the media were supplemented with 10 % v/v foetal bovine serum (FBS), 100 μg/mL penicillin/streptomycin, and 50 μg/mL amphotericin B. The cells were cultured in a 5 % CO2 incubator at 37 °C.
(§2) The monolayer cell culture was detached using accutase and the cell count was adjusted to 2.5 x10^5 -3.0 x10^5 cells/mL using medium containing feotal bovine serum. The cells were then plated into 96 wells with a cell density of 5000-7000 cells/well and then incubated for 24 h to allow adherence of cells to the base of well of the plates. The media was then removed and 200 μl of fresh media containing different concentration of various extracts or isolated compounds were added. Cisplatin was used as the positive control. The plates were incubated for 24, 48 and 72 h at 37 °C and 5 % CO2. The cytotoxicity of the extracts and isolated compounds were screened using the […] (SRB) assay. This assay was first described by Houghton in 2007 [8]. The incubation was halted by gentle addition of 50 μl ice cold 4 % trichloroacetic acid (TCA) to each well and the plates were incubated at 4 °C for 1 h. Then, the supernatant was discarded and the plates were washed with distilled water for 5 times and then air dried. SRB dye, 50 μl, (0.4 % w/v) was added into each well and the treated cells and control were incubated at room temperature for 30 min. The unbound dye was removed by rapid washing four times with 1 % acetic acid. The plates were then air dried and 100 μl of tris base (10 mM unbuffered, pH 10.5) was added and the plates were shaken at 500 rpm for 5 min to solublize the bound SRB stain. The plates were then read with an ELISA reader (Synergy H1 Hybrid) at an absorbance of 492 nm.

[4] = tested on: MRC5 (human normal lung fibroblasts); test: SRB in vitro cytotoxicity screening (toxicity to normal cells); assay type: cell-based; conditions: Homo sapiens, MRC5, isolated compounds, 72 h, read-out: IC50 in μg/ml (μM) (MRC5) 72 h (converted)
Procedure: as §1, §2

A-549 tumour cell line = conditions: cited from earlier work
[5] = tested on: cervical carcinoma (HeLa); design: method as in PMID 17109253; conditions: arborinine isolated from Ruta graveolens; cited from earlier work
[6] = tested on: breast adenocarcinoma (MCF-7); design: method as in PMID 17109253; conditions: arborinine isolated from Ruta graveolens; cited from earlier work
[7] = tested on: skin epidermoid carcinoma (A431); design: method as in PMID 17109253; conditions: arborinine isolated from Ruta graveolens; cited from earlier work
[8] = 48 h, value in brackets, read-out: IC50 in μg/ml (μM) (A549) 48 h (converted)
[9] = 48 h, read-out: IC50 in μg/ml (μM) (A549) 48 h (converted)
[10] = 72 h, value in brackets, read-out: IC50 in μg/ml (μM) (A549) 72 h (converted)
[11] = 72 h, read-out: IC50 in μg/ml (μM) (A549) 72 h (converted)

Q: Which “% inhibition of platelet aggregation, inducer AA” value (“% inhibition … inducer AA” for short) (washed rabbit platelets; Conc. 0.2 /c109g/mL) does the source give for graveolinine [Compound 16] here?
A: 6.8%

Q: What about the “% inhibition … inducer AA” value (washed rabbit platelets; Conc. 0.5 /c109g/mL) of the same compound?
A: 14.9%

Q: What about the “% inhibition of platelet aggregation, inducer Col” value (“% inhibition … inducer Col” below) (washed rabbit platelets; Conc. 0.5 /c109g/mL) of the same compound?
A: 5.8%

Q: And the “% inhibition … inducer AA” value (washed rabbit platelets; Conc. 1 /c109g/mL)?
A: 26.9%

Q: What about the “% inhibition … inducer Col” value (washed rabbit platelets; Conc. 1 /c109g/mL) of the same compound?
A: 19.2%

Q: What about the “% inhibition … inducer AA” value (washed rabbit platelets; Conc. 2 /c109g/mL) of the same compound?
A: 38.4%

Q: And the “% inhibition … inducer Col” value (washed rabbit platelets; Conc. 2 /c109g/mL)?
A: 25.4%

Q: And the “% inhibition … inducer AA” value (washed rabbit platelets; Conc. 5 /c109g/mL)?
A: 71.2%

Q: And the “% inhibition … inducer Col” value (washed rabbit platelets; Conc. 5 /c109g/mL)?
A: 33.3%

Q: And the “% inhibition … inducer AA” value (washed rabbit platelets; Conc. 10 /c109g/mL)?
A: 73.1%

Q: And the “% inhibition … inducer Col” value (washed rabbit platelets; Conc. 10 /c109g/mL)?
A: 49.5%

Q: And the “% inhibition … inducer AA” value (washed rabbit platelets; Conc. 20 /c109g/mL)?
A: 77.4%

Q: What about the “% inhibition … inducer Col” value (washed rabbit platelets; Conc. 20 /c109g/mL) of the same compound?
A: 72.6%

Q: What about the “% inhibition … inducer AA” value (washed rabbit platelets; Conc. 50 /c109g/mL) of the same compound?
A: 100.0%

Q: And the “% inhibition … inducer Col” value (washed rabbit platelets; Conc. 50 /c109g/mL)?
A: 81.2%

Q: What about the “% inhibition … inducer AA” value (washed rabbit platelets; Conc. 100 /c109g/mL) of the same compound?
A: 100.0%

Q: What about the “% inhibition of platelet aggregation, inducer PAF” value (washed rabbit platelets; Conc. 100 /c109g/mL) of the same compound?
A: 34.6%

Q: And the “% inhibition … inducer Col” value (washed rabbit platelets; Conc. 100 /c109g/mL)?
A: 100.0%

Q: And the “% inhibition of platelet aggregation, inducer Thr” value (washed rabbit platelets; Conc. 100 /c109g/mL)?
A: 9.0%

Q: And the “ED50 Hela” value [1]?
A: - (“-“: ED50 /c6220 /c109g/mL)

Q: What about the “ED50 DLD” value [2] of the same compound?
A: - (“-“: ED50 /c6220 /c109g/mL)

Q: And the “ED50 Hepa” value (Hepa: Human hepatoma)?
A: - (“-“: ED50 /c6220 /c109g/mL)

Q: Which “% inhibition … inducer AA” value (washed rabbit platelets; Conc. 50 /c109g/mL) does the source give for bergapten [Compound 9] here?
A: 63.5%

Q: What about the “% inhibition of platelet aggregation, inducer PAF” value (washed rabbit platelets; Conc. 50 /c109g/mL) of the same compound?
A: 4.5%

Q: What about the “% inhibition … inducer Col” value (washed rabbit platelets; Conc. 50 /c109g/mL) of the same compound?
A: 59.0%

Q: And the “% inhibition of platelet aggregation, inducer Thr” value (washed rabbit platelets; Conc. 50 /c109g/mL)?
A: 7.5%

Q: What about the “antiplatelet aggregation activity (in words)” value (washed rabbit platelets) of the same compound?
A: no obvious activity

Q: And the “ED50 Hela” value [1]?
A: - (“-“: ED50 /c6220 /c109g/mL)

Q: What about the “ED50 DLD” value [2] of the same compound?
A: - (“-“: ED50 /c6220 /c109g/mL)

Q: What about the “ED50 Hepa” value (Hepa: Human hepatoma) of the same compound?
A: - (“-“: ED50 /c6220 /c109g/mL)

Q: With `CCCCCCCCCc1cc(=O)c2ccccc2[nH]1` [pseudane IX] as the compound, how does the “replication of hepatitis C virus” value [3] read?
A: stop the replication

Q: For skimmianine [Compound 7], which “% inhibition … inducer AA” value (washed rabbit platelets; Conc. 20 /c109g/mL) is on record?
A: 5.4%

Q: And the “% inhibition … inducer Col” value (washed rabbit platelets; Conc. 20 /c109g/mL)?
A: 2.5%

Q: And the “% inhibition … inducer AA” value (washed rabbit platelets; Conc. 50 /c109g/mL)?
A: 13.1%

Q: What about the “% inhibition … inducer Col” value (washed rabbit platelets; Conc. 50 /c109g/mL) of the same compound?
A: 7.8%

Q: What about the “% inhibition … inducer AA” value (washed rabbit platelets; Conc. 100 /c109g/mL) of the same compound?
A: 81.5%

Q: And the “% inhibition … inducer Col” value (washed rabbit platelets; Conc. 100 /c109g/mL)?
A: 45.9%

Q: What about the “ED50 Hela” value [1] of the same compound?
A: - (“-“: ED50 /c6220 /c109g/mL)

Q: And the “ED50 DLD” value [2]?
A: - (“-“: ED50 /c6220 /c109g/mL)

Q: And the “ED50 Hepa” value (Hepa: Human hepatoma)?
A: - (“-“: ED50 /c6220 /c109g/mL)

Q: What does the source list for `COc1cc2ccc(=O)oc2cc1O` [Compound 15, scopoletin]?
A: % inhibition of platelet aggregation, inducer AA (washed rabbit platelets; Conc. 100 /c109g/mL): 14.7%; % inhibition of platelet aggregation, inducer PAF (washed rabbit platelets; Conc. 100 /c109g/mL): 1.6%; % inhibition of platelet aggregation, inducer Col (washed rabbit platelets; Conc. 100 /c109g/mL): 3.4%; % inhibition of platelet aggregation, inducer Thr (washed rabbit platelets; Conc. 100 /c109g/mL): 1.5%; antiplatelet aggregation activity (in words) (washed rabbit platelets): no obvious activity; ED50 Hela [1]: - (“-“: ED50 /c6220 /c109g/mL); ED50 DLD [2]: - (“-“: ED50 /c6220 /c109g/mL); ED50 Hepa (Hepa: Human hepatoma): - (“-“: ED50 /c6220 /c109g/mL)

Q: With `C=CC(C)(C)c1cc2cc3c(cc2oc1=O)OC(C(C)(C)OC(C)=O)C3` (stereo not drawn) [Rutamarin, rutamarin] as the compound, how does the IC50 (A549 cell line; [8]) read?
A: 158 µM

Q: What about the IC50 (A549 cell line; [9]) of the same compound?
A: 56.3 ± 1.53 µg/mL

Q: What about the IC50 (A549 cell line; [10]) of the same compound?
A: 192 µM

Q: What about the IC50 (A549 cell line; [11]) of the same compound?
A: 68.5 ± 3.06 µg/mL

Q: And the IC50 ([4]; value in brackets)?
A: > 281 µM

Q: And the IC50 [4]?
A: > 100 µg/mL

Q: What about the “IC50 against A549 cell line” value (A-549 tumour cell line) of the same compound?
A: 1.318 µg/mL (≈ 3.7 µM)

Q: With `CC(=O)O[C@H]1C(=O)[C@@]2(C)[C@H]([C@H](OC(=O)c3ccccc3)[C@]3(O)C[C@H](OC(=O)[C@H](O)[C@@H](NC(=O)c4ccccc4)c4ccccc4)C(C)=C1C3(C)C)[C@]1(OC(C)=O)CO[C@@H]1C[C@@H]2O` [Taxol, reference compound] as the compound, how does the “IC50 A-549” value (A-549 tumour cell line) read?
A: 16.6 µg/mL (≈ 19.4 µM)

Q: Which “IC50 A-549” value (A-549 tumour cell line) does the source give for rutamarin [Compound 4] here?
A: 1318 µg/mL

Q: Which IC50 (A549 cell line; [8]) does the source give for `COc1cc2c(c(O)c1OC)c(=O)c1ccccc1n2C` [Arborinine, arborinine] here?
A: 97.2 µM

Q: What about the IC50 (A549 cell line; [9]) of the same compound?
A: 27.7 ± 0.26 µg/mL

Q: What about the IC50 (A549 cell line; [10]) of the same compound?
A: 46 µM

Q: And the IC50 (A549 cell line; [11])?
A: 13.1 ± 0.06 µg/mL

Q: What about the IC50 ([4]; value in brackets) of the same compound?
A: 73 µM

Q: And the IC50 [4]?
A: 20.8 ± 0.15 µg/mL

Q: What about the IC50 [5] of the same compound?
A: 1.84 µg/mL (≈ 6.45 µM)

Q: And the IC50 [6]?
A: 11.74 µg/mL (≈ 41.1 µM)

Q: What about the IC50 [7] of the same compound?
A: 12.95 µg/mL (≈ 45.4 µM)
